Measurements: patent US20250084095A1, “Aminopyrimidine Derivatives as Cyclin-Dependent Kinase Inhibitors” (Accutar Biotechnology Inc., priority 2023, published 2025)

Tests used:
22RV1 cells = assay: Cell growth inhibition of 22RV1 cells (CellTiter-Glo); assay type: cell-based; conditions: Homo sapiens, 22Rv1, 120 h, 5 days, CellTiter-Glo, read-out: 22RV1 Cell Growh GI50
Summary of the method: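 22RV1 cells were plated in RPMI1640 with FBS (20% in one version, 10% in the other) and dosed next day at various concentrations from DMSO stocks. After 5 days at 37 °C, viability was measured by CellTiter-Glo luminescence.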

[1] = system: Phospho-Rb (Ser807/811) in MCF7 cells; assay: Phospho-Rb expression inhibition in MCF7 cells quantified by in cell Western; assay type: cell-based, human; conditions: Homo sapiens, MCF7, 24 h, 24 hours, in cell Western, read-out: MCF7 pRb IC50
Summary of the method: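 MCF7 cells were seeded at 20,000/well, grown overnight, then treated 24 h at 37 °C with compound dilutions (0.1% DMSO from 1000× stocks). Fixed cells were co-stained for phospho-Rb Ser807/811 and total Rb. Near-infrared dual-channel in-cell Western imaging was the read-out.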

## Cc1c(C(C)(C)O)cnc2c(Cl)cc(-c3nc(N[C@@H]4C[C@H]5CO[C@H](O5)[C@H]4O)ncc3F)cc12 [Compound 283, (1S,3R,4S,5R)-3-((4-(8-chloro-3-(2-hydroxypropan-2-yl)-4-methylquinolin-6-yl)-5-fluoropyrimidin-2-yl)amino)-6,8-dioxabicyclo[3.2.1]octan-4-ol]
22RV1 cells
  GI50: ≤ 120 nM
[1]
  IC50: ≤ 40 nM

## CC(C)n1c(C(C)(C)O)nc2c(F)cc(-c3nc(N[C@@H]4C[C@H]5OC[C@H](O5)[C@H]4O)ncc3Cl)cc21 [Compound 72, (1S,2S,3R,5S)-3-((5-chloro-4-(4-fluoro-2-(2-hydroxypropan-2-yl)-1-isopropyl-1H-benzo[d]imidazol-6-yl)pyrimidin-2-yl)amino)-6,8-dioxabicyclo[3.2.1]octan-2-ol]
22RV1 cells
  GI50: 120 to 450 nM
[1]
  IC50: 40 to 150 nM

## CC(C)n1c(C(F)(F)CO)nc2c(F)cc(-c3nc(N[C@@H]4C[C@H]5CO[C@H](O5)[C@H]4O)ncc3Cl)cc21 [Compound 176, (1S,3R,4S,5R)-3-((5-chloro-4-(2-(1,1-difluoro-2-hydroxyethyl)-4-fluoro-1-isopropyl-1H-benzo[d]imidazol-6-yl)pyrimidin-2-yl)amino)-6,8-dioxabicyclo[3.2.1]octan-4-ol]
22RV1 cells
  GI50: 450 to 3000 nM
[1]
  IC50: 150 to 1000 nM

## CC(C)c1c(C(C)(C)O)cnc2c(F)cc(-c3nc(N[C@@H]4C[C@H]5CO[C@H](O5)[C@H]4O)ncc3Cl)cc12 [Compound 250, (1S,3R,4S,5R)-3-((5-chloro-4-(8-fluoro-3-(2-hydroxypropan-2-yl)-4-isopropylquinolin-6-yl)pyrimidin-2-yl)amino)-6,8-dioxabicyclo[3.2.1]octan-4-ol]
22RV1 cells
  GI50: ≤ 120 nM
[1]
  IC50: ≤ 40 nM

## CC(C)[C@@H]1COC(=O)N1c1nc2c(F)cc(-c3nc(N[C@@H]4C[C@H]5CO[C@H](O5)[C@H]4O)ncc3Cl)cc2n1C(C)C [Compound 263, (R)-3-(6-(5-chloro-2-(((1S,3R,4S,5R)-4-hydroxy-6,8-dioxabicyclo[3.2.1]octan-3-yl)amino)pyrimidin-4-yl)-4-fluoro-1-isopropyl-1H-benzo[d]imidazol-2-yl)-4-isopropyloxazolidin-2-one]
22RV1 cells
  GI50: > 3000 nM
[1]
  IC50: 150 to 1000 nM

## CC(C)n1c(-c2ccccc2)nc2c(F)cc(-c3nc(N[C@@H]4C[C@H]5CO[C@H](O5)[C@H]4O)ncc3Cl)cc21 [Compound 163, (1S,3R,4S,5R)-3-((5-chloro-4-(4-fluoro-1-isopropyl-2-phenyl-1H-benzo[d]imidazol-6-yl)pyrimidin-2-yl)amino)-6,8-dioxabicyclo[3.2.1]octan-4-ol]
22RV1 cells
  GI50: 120 to 450 nM
[1]
  IC50: 40 to 150 nM

## Cc1c(-c2nc(N[C@@H]3C[C@H]4CO[C@H](O4)[C@H]3O)ncc2F)sc2c(C(C)C)cnnc12 [Compound 266, (1S,3R,4S,5R)-3-((5-fluoro-4-(4-isopropyl-7-methylthieno[3,2-c]pyridazin-6-yl)pyrimidin-2-yl)amino)-6,8-dioxabicyclo[3.2.1]octan-4-ol]
22RV1 cells
  GI50: ≤ 120 nM
[1]
  IC50: ≤ 40 nM

## CC(C)c1cn(C)c(=O)c2ccc(-c3nc(N[C@@H]4C[C@H]5CO[C@H](O5)[C@H]4O)ncc3Cl)cc12 [Compound 236, 6-(5-chloro-2-(((1S,3R,4S,5R)-4-hydroxy-6,8-dioxabicyclo[3.2.1]octan-3-yl)amino)pyrimidin-4-yl)-4-isopropyl-2-methylisoquinolin-1(2H)-one]
22RV1 cells
  GI50: 450 to 3000 nM
[1]
  IC50: 150 to 1000 nM

## CC(C)n1c(C(C)(C)O)c(C#N)c2c(F)cc(-c3nc(N[C@@H]4C[C@H]5CO[C@H](O5)[C@H]4O)ncc3Cl)cc21 [Compound 26, 6-(5-chloro-2-(((1S,3R,4S,5R)-4-hydroxy-6,8-dioxabicyclo[3.2.1]octan-3-yl)amino)pyrimidin-4-yl)-4-fluoro-2-(2-hydroxypropan-2-yl)-1-isopropyl-1H-indole-3-carbonitrile]
22RV1 cells
  GI50: ≤ 120 nM
[1]
  IC50: 40 to 150 nM

## Cc1c(-c2nc(N[C@@H]3C[C@H]4CO[C@H](O4)[C@H]3O)ncc2F)sc2c(C(C)C)cn(C)c(=O)c12 [Compound 189, 2-(5-fluoro-2-(((1S,3R,4S,5R)-4-hydroxy-6,8-dioxabicyclo[3.2.1]octan-3-yl)amino)pyrimidin-4-yl)-7-isopropyl-3,5-dimethylthieno[3,2-c]pyridin-4(5H)-one]
22RV1 cells
  GI50: ≤ 120 nM
[1]
  IC50: ≤ 40 nM

## C[C@H]1COc2c(-c3nc(N[C@@H]4C[C@H]5CO[C@H](O5)[C@H]4O)ncc3Cl)cc(F)c3nc(C(C)(C)O)n1c23 [Compound 37, (1S,3R,4S,5R)-3-((5-chloro-4-((S)-8-fluoro-2-(2-hydroxypropan-2-yl)-3-methyl-3,4-dihydro-5-oxa-1,2a-diazaacenaphthylen-6-yl)pyrimidin-2-yl)amino)-6,8-dioxabicyclo[3.2.1]octan-4-ol]
22RV1 cells
  GI50: 120 to 450 nM
[1]
  IC50: 40 to 150 nM

## CC(C)n1c(C(C)(C)N2CCOCC2)nc2c(F)cc(-c3nc(N[C@@H]4C[C@H]5CO[C@H](O5)[C@H]4O)ncc3Cl)cc21 [Compound 219, (1S,3R,4S,5R)-3-((5-chloro-4-(4-fluoro-1-isopropyl-2-(2-morpholinopropan-2-yl)-1H-benzo[d]imidazol-6-yl)pyrimidin-2-yl)amino)-6,8-dioxabicyclo[3.2.1]octan-4-ol]
22RV1 cells
  GI50: 120 to 450 nM
[1]
  IC50: 40 to 150 nM

## Cc1c(C(C)(C)O)nnc2c(F)cc(-c3nc(N[C@@H]4C[C@H]5CO[C@H](O5)[C@H]4O)ncc3F)cc12 [Compound 280, (1S,3R,4S,5R)-3-((5-fluoro-4-(8-fluoro-3-(2-hydroxypropan-2-yl)-4-methylcinnolin-6-yl)pyrimidin-2-yl)amino)-6,8-dioxabicyclo[3.2.1]octan-4-ol]
22RV1 cells
  GI50: ≤ 120 nM
[1]
  IC50: 150 to 1000 nM

## CC(C)n1c([C@@H]2COC(=O)N2C)nc2c(F)cc(-c3nc(N[C@@H]4C[C@H]5CO[C@H](O5)[C@H]4O)ncc3Cl)cc21 [Compound 185, (R)-4-(6-(5-chloro-2-(((1S,3R,4S,5R)-4-hydroxy-6,8-dioxabicyclo[3.2.1]octan-3-yl)amino)pyrimidin-4-yl)-4-fluoro-1-isopropyl-1H-benzo[d]imidazol-2-yl)-3-methyloxazolidin-2-one]
22RV1 cells
  GI50: 450 to 3000 nM
[1]
  IC50: 150 to 1000 nM

## Cc1c(CN2C[C@H](C)OC2=O)n(C(C)C)c2cc(-c3nc(N[C@@H]4C[C@H]5CO[C@H](O5)[C@H]4O)ncc3F)ccc2c1=O [Compound 212, (S)-3-((7-(5-fluoro-2-(((1S,3R,4S,5R)-4-hydroxy-6,8-dioxabicyclo[3.2.1]octan-3-yl)amino)pyrimidin-4-yl)-1-isopropyl-3-methyl-4-oxo-1,4-dihydroquinolin-2-yl)methyl)-5-methyloxazolidin-2-one]
22RV1 cells
  GI50: > 3000 nM
[1]
  IC50: 150 to 1000 nM

## CC(C)(O)c1cnc2c(F)cc(-c3nc(N[C@@H]4C[C@H]5CO[C@H](O5)[C@H]4O)ncc3Cl)cc2n1 [Compound 264, (1S,3R,4S,5R)-3-((5-chloro-4-(8-fluoro-3-(2-hydroxypropan-2-yl)quinoxalin-6-yl)pyrimidin-2-yl)amino)-6,8-dioxabicyclo[3.2.1]octan-4-ol]
22RV1 cells
  GI50: 450 to 3000 nM
[1]
  IC50: 150 to 1000 nM

## CC(C)n1c([C@@H]2COC(=O)N2)nc2c(F)cc(-c3nc(N[C@@H]4C[C@H]5CO[C@H](O5)[C@H]4O)ncc3Cl)cc21 [Compound 184, (R)-4-(6-(5-chloro-2-(((1S,3R,4S,5R)-4-hydroxy-6,8-dioxabicyclo[3.2.1]octan-3-yl)amino)pyrimidin-4-yl)-4-fluoro-1-isopropyl-1H-benzo[d]imidazol-2-yl)oxazolidin-2-one]
22RV1 cells
  GI50: 120 to 450 nM
[1]
  IC50: 150 to 1000 nM

## CC(C)n1c(C2(O)COC2)nc2c(F)cc(-c3nc(N[C@@H]4C[C@H]5CO[C@H](O5)[C@H]4O)ncc3Cl)cc21 [Compound 172, (1S,3R,4S,5R)-3-((5-chloro-4-(4-fluoro-2-(3-hydroxyoxetan-3-yl)-1-isopropyl-1H-benzo[d]imidazol-6-yl)pyrimidin-2-yl)amino)-6,8-dioxabicyclo[3.2.1]octan-4-ol]
22RV1 cells
  GI50: 120 to 450 nM
[1]
  IC50: 40 to 150 nM

## CC(C)n1c(C2(F)COC2)nc2c(F)cc(-c3nc(N[C@@H]4C[C@H]5CO[C@H](O5)[C@H]4O)ncc3Cl)cc21 [Compound 170, (1S,3R,4S,5R)-3-((5-chloro-4-(4-fluoro-2-(3-fluorooxetan-3-yl)-1-isopropyl-1H-benzo[d]imidazol-6-yl)pyrimidin-2-yl)amino)-6,8-dioxabicyclo[3.2.1]octan-4-ol]
22RV1 cells
  GI50: 450 to 3000 nM
[1]
  IC50: 40 to 150 nM

## Cc1nc2c(F)cc(-c3nc(N[C@@H]4C[C@H]5CO[C@H](O5)[C@H]4O)ncc3Cl)cc2n1[C@@H]1CCC[C@@]1(C)O [Compound 182, (1S,3R,4S,5R)-3-((5-chloro-4-(4-fluoro-1-((1R,2R)-2-hydroxy-2-methylcyclopentyl)-2-methyl-1H-benzo[d]imidazol-6-yl)pyrimidin-2-yl)amino)-6,8-dioxabicyclo[3.2.1]octan-4-ol]
22RV1 cells
  GI50: 120 to 450 nM
[1]
  IC50: 150 to 1000 nM

## C[C@H]1COC[C@H](C)N1Cc1cnc2c(F)cc(-c3nc(N[C@@H]4C[C@H]5CO[C@H](O5)[C@H]4O)ncc3Cl)cc2c1 [Compound 262, (1S,3R,4S,5R)-3-((5-chloro-4-(3-(((3S,5S)-3,5-dimethylmorpholino)methyl)-8-fluoroquinolin-6-yl)pyrimidin-2-yl)amino)-6,8-dioxabicyclo[3.2.1]octan-4-ol]
22RV1 cells
  GI50: 450 to 3000 nM
[1]
  IC50: 150 to 1000 nM

## CC(C)n1c(CN2[C@@H](C)COC[C@@H]2C)c(F)c(=O)c2ccc(-c3nc(N[C@@H]4C[C@H]5CO[C@H](O5)[C@H]4O)ncc3F)cc21 [Compound 200, 2-(((3S,5S)-3,5-dimethylmorpholino)methyl)-3-fluoro-7-(5-fluoro-2-(((1S,3R,4S,5R)-4-hydroxy-6,8-dioxabicyclo[3.2.1]octan-3-yl)amino)pyrimidin-4-yl)-1-isopropylquinolin-4(1H)-one]
22RV1 cells
  GI50: 120 to 450 nM
[1]
  IC50: 40 to 150 nM
